# Laboratory results: PMC5729604, “Dual inhibitors of hepatitis C virus and hepatocellular carcinoma: design, synthesis and docking studies” (Future Science OA, 2017)
# Tested on: HepG2 cells infected with hepatitis C virus
# Assay: In vitro anti-HCV screening, qualitative RT-PCR of viral RNA
# Format: cell-based, HCV genotype-4
# Settings: at the used dose (below LD0 on HepG2 and PBMCs), 72 h; Positive = disappearance of viral RNA-amplified product (174 bp)
# Description: The safe compounds on RBCs (5a-g, 5i-l, 5p-r, 5v-w, 6b-g) were screened for their in vitro anti-HCV activity using the HCC HepG2 cell line infected with the HCV. Monitoring of the HCV viremia pre- and post-antiviral therapy through the detection of viral RNA using qualitative reverse transcription-PCR (RT-PCR) was adopted in the present investigation. This technique was reported to be the most frequently used, reliable and sensitive technique. Inhibition of viral replication was detected by amplification of viral RNA segments by the RT-PCR technique both in the cultivated infected cells alone (as a positive control) and at the specified dose for each test compound at optimal temperature. The test compound was considered to be active when it can inhibit the viral replication inside the HCV-infected HepG2 cells, as evidenced by the disappearance of the viral RNA-amplified products detected by the RT-PCR (compared with positive control).
# The used concentration of each compound was chosen to be lower than the LD0 on HepG2 cells. Therefore, 100% viability of HepG2 cells was maintained, to make sure that any inhibitory effect was due to anti-HCV activity rather than cytotoxic activity on HepG2 cells. Moreover, the used concentrations were also chosen to be lower than the LD0 on PBMCs. Consequently, these doses could be used for inhibition of HCV in normal cells infected with the virus.
# HepG2 cells were washed twice in RPMI-1640 medium supplemented with 200 μM L-glutamine and […] HEPES buffer. The cells were suspended at 12 × 10^4 cells/ml in RPMI culture medium (RPMI supplemented medium and 10% FBS). The appropriate number of cells to be used was chosen to be 12 × 10^3 cells/well (100 μl of the prepared suspension), and the cells were left to adhere on the polystyrene […] plates in an incubator at 37°C, 5% CO2 and 95% humidity for 24 h. The cells were washed once using RPMI supplemented medium, then infected with 2% HCV-infected serum (the used serum was a pole of ten patients infected with HCV genotype-4 with viral loads: 3.2–9 million IU/ml, G4 HCV RNA) in RPMI culture medium containing 8% FBS. The used dose of each compound was chosen so as to maintain 100% viability of the HepG2 cell line (the dose was lower than the LD0 of each compound on HepG2 cells as calculated from the in vitro anticancer screening). It was reported that, cultured HepG2 cells lost their biotransformation activity due to decrease in cytochrome (CYP) transcription. This waived its effect on the compounds stability during the test. Negative control is HepG2 cells with culture medium without addition of HCV infected serum or addition of tested compounds. Positive control is HepG2 cells with culture medium and infected HCV serum but without addition of tested compounds. After addition of the compounds, the plates were incubated at 37°C, 5% CO2 and 95% humidity for 72 h, followed by RNA extraction. The RNA strand was detected by RT-PCR using HCV-specific primers to the […] region of the virus.
# RNA was extracted from HepG2 cells using the method described by El-Awady et al.. Culture cells were mixed with 200 μl of 4 mol/l guanidinium isothiocyanate (Fischer Bioreagents) containing 25 mmol/l sodium citrate (MP Biomedicals, CA, USA), 0.5% sarkosyl (Fischer Bioreagents), 0.1 mol/l β-mercaptoethanol (MP Biomedicals), and 100 μl sodium acetate (Merck). The lysed cells were mixed with an equal volume of phenol, chloroform and isoamyl alcohol (25:24:1, pH 4; Fischer Bioreagents). After vortexing, the mixture was centrifuged (14,000 r.p.m. for 10 min) at 4°C. The aqueous layer was collected and mixed with an equal volume of isopropanol (Acros Organics, Geel, Belgium). After incubation at -20°C overnight, RNA was precipitated by centrifugation (14,000 r.p.m. for 30 min) at 4°C, and the precipitated RNA was washed twice with 70% ethanol. […]
row,SMILES,Result (anti-HCV screening)
1,"CC(=NN=C1SC(=C2C(=O)Nc3ccccc32)C(=O)N1C1CCCCC1)c1cc2ccccc2o1 [Compound 6d, 2-[1-(Benzofuran-2-yl)ethylidenehydrazono]-5-(2-oxoindolin-3-ylidene)-3-cyclohexylthiazolidin-4-one]",Negative
2,"CC(=NN=C1SC(=C2C(=O)Nc3ccccc32)C(=O)N1c1ccccc1)c1nc2ccccc2[nH]1 [Compound 6e, 2-[1-(1H-Benzimidazole-2-yl)ethylidenehydrazono]-5-(2-oxoindolin-3-ylidene)-3-phenylthiazolidin-4-one]",Negative
3,"CC(=NN=C1SC(=C2C(=O)Nc3ccccc32)C(=O)N1c1ccc(Cl)cc1)c1nc2ccccc2[nH]1 [Compound 6f, 2-[1-(1H-Benzimidazole-2-yl)ethylidenehydrazono]-5-(2-oxoindolin-3-ylidene)-3-(4-chlorophenyl)thiazolidin-4-one]",Negative
4,"COc1ccc(N2C(=O)C(=C3C(=O)Nc4ccccc43)SC2=NN=C(C)c2nc3ccccc3[nH]2)cc1 [Compound 6g, 2-[1-(1H-Benzimidazole-2-yl)ethylidenehydrazono]-5-(2-oxoindolin-3-ylidene)-3-(4-methoxyphenyl)thiazolidin-4-one]",Negative
